# Laboratory results: patent publication US20250325536A1, “THERAPEUTIC USES OF GLP1R AGONISTS” (vTv Therapeutics LLC, priority 2018, published 2025)
# Columns and labels:
# [1] = test system: subjects (humans) with type 2 diabetes; experiment: Phase 2 clinical study of API-1, 12 weeks of treatment, on stable metformin; assay type: in vivo, human; conditions: for placebo-subtracted decrease from baseline in HbA1c (%): p<0.001
# Protocol: A Phase 2 clinical study was designed as a randomized, double-blind, placebo- controlled, parallel-group multi-center study evaluating the efficacy and safety following 12 weeks of treatment with API-1 in subjects (humans) with type 2 diabetes who were being treated with a stable dose of metformin. Subjects were randomly assigned to one of three treatment groups, API-1 150 mg BID, API-1 150 mg QPM, or placebo with approximately n=52/group. A total of approximately 156 patients were to be randomized into this study and 174 were ultimately randomized. Subjects were enrolled and randomized according to a fixed randomization scheme blocked by study investigative site. Severity of diabetes was determined by HbA1c measures (7.5% to 10%) at screening, confirmed at Baseline, and HbA1c was used as a stratification variable in the randomization scheme: HbA1c less than 8% and 8% or more. Randomization was to be a balanced allocation (1:1:1) among the three treatment groups. Dropouts were not to be replaced. Statistical analyses for topline results included placebo-subtracted change from baseline (LSM-CFB) for HbA1c (primary endpoint) and body weight (secondary endpoint) as well as a post hoc concentration/effect analysis to evaluate the effect of exposure on efficacy.
# [2] = test system: subjects (humans) with T2DM; experiment: Phase 2 dose-ranging study of API-2, 12 weeks of treatment; assay type: in vivo, human; conditions: Target population (Baseline 8-11%)
# Protocol: A Phase 2 study was designed as a randomized, double-blind, placebo controlled, dose-ranging, parallel group study evaluating the efficacy and safety following 12 weeks of treatment with API-2 in subjects (humans) with T2DM. The study was conducted in 2 parts: Part A and Part B. Part A and Part B were identical except for the dose levels administered. In Part A, subjects received one of two treatments administered orally for 12 weeks: API-2 400 mg QD (n=51) or matching placebo (n=26). In Part B, subjects received one of three treatments administered orally for 12 weeks: API-2 200 mg QD (n=28), API-2 800 mg QD (n=56), or matching placebo (n=26).
# [3] = 150 mg once daily (QPM) arm, Week 12, completers, 2.2 mg/kg to 1.0 mg/kg
# [4] = 150 mg twice daily (BID) arm, Week 12, completers, 2.2 mg/kg to 4.8 mg/kg
structure (smiles),measurement,setting,value
"CC[C@@H](c1ccccc1)N1Cc2cc3c(cc2C[C@H]1C(=O)N[C@@H](Cc1ccc(-c2ccnc(C)c2C)cc1)C(=O)O)OC[C@H](c1ccc(OCc2ccc(Cl)c(Cl)c2)cc1)O3.Cl.Cl [API-1, (S)-2-{[(3S,8S)-3-[4-(3,4-dichloro-benzyloxy)-phenyl]-7-((S)-1-phenyl-propyl)-2,3,6,7,8,9-hexahydro-[1,4]dioxino[2,3-g]isoquinoline-8-carbonyl]-amino}-3-[4-(2,3-dimethyl-pyridin-4-yl)-phenyl]-propionic acid hydrochloride (1:2)]",placebo-subtracted decrease from baseline in HbA1c (%),"[1]; 150 mg once daily (QPM) arm, 12 weeks",0.9±0.2%
same,dose (mg/kg) response of change from baseline in FPG (FIG. 3),[1]; [3],increased as the dose was reduced
same,dose (mg/kg) response of change from baseline in HbA1c (FIG. 1),[1]; [3],increased as the dose was reduced
same,weight loss (average),"[1]; 150 mg once daily arm, 12 weeks, p=0.08",0.9 kg
same,placebo-subtracted decrease from baseline in HbA1c (%),"[1]; 150 mg twice daily (BID) arm, 12 weeks",0.7±0.2%
same,dose (mg/kg) response of change from baseline in FPG (FIG. 4),[1]; [4],almost unchanged
same,dose (mg/kg) response of change from baseline in HbA1c (FIG. 2),[1]; [4],almost unchanged
same,weight loss (average),"[1]; 150 mg twice daily arm, 12 weeks",0.6 kg
same,Mean Change from Baseline HbA1c (%),"[1]; group 1-1.35 mg/kg (<1.35), Week 4",−0.57%
same,Mean Change from Baseline HbA1c (%),"[1]; group 1-1.35 mg/kg (<1.35), Week 8",−1.26%
same,Mean Change from Baseline HbA1c (%),"[1]; group 1-1.35 mg/kg (<1.35), Week 12",−1.71%
same,Mean Change from Baseline HbA1c (%),"[1]; group 1.35-1.64 mg/kg, Week 4",−0.35%
same,Mean Change from Baseline HbA1c (%),"[1]; group 1.35-1.64 mg/kg, Week 8",−0.85%
same,Mean Change from Baseline HbA1c (%),"[1]; group 1.35-1.64 mg/kg, Week 12",−0.90%
same,Mean Change from Baseline HbA1c (%),"[1]; group 1.65-1.75 mg/kg, Week 4",−0.21%
same,Mean Change from Baseline HbA1c (%),"[1]; group 1.65-1.75 mg/kg, Week 8",−0.51%
same,Mean Change from Baseline HbA1c (%),"[1]; group 1.65-1.75 mg/kg, Week 12",−0.75%
same,Mean Change from Baseline HbA1c (%),"[1]; group 1.76-2.2 mg/kg (>1.75), Week 4",−0.31%
same,Mean Change from Baseline HbA1c (%),"[1]; group 1.76-2.2 mg/kg (>1.75), Week 8",−0.43%
same,Mean Change from Baseline HbA1c (%),"[1]; group 1.76-2.2 mg/kg (>1.75), Week 12",−0.55%
same,placebo-subtracted decrease from baseline in fasting plasma glucose,"[1]; once daily arm, 12 weeks",about 16 mg/dL
same,reduction from baseline in HbA1c,"[1]; patients dosed with lower than 1.35 mg/kg, 12 weeks, p<0.01",1.7%
same,reduction from baseline in body weight,"[1]; patients dosed with lower than 1.35 mg/kg, 12 weeks, p<0.05",3.7 kg
same,placebo-subtracted decrease from baseline in fasting plasma glucose,"[1]; twice daily arm, 12 weeks",~17 mg/dL
"CC[C@@H](c1ccccc1)N1Cc2cc3c(cc2C[C@H]1C(=O)N[C@@H](Cc1ccc(-c2ccc(C#N)cc2)cc1)C(=O)O)N(C)C(=O)[C@@H](c1ccc(OCc2ccc(Cl)c(Cl)c2)cc1)O3 [API-2, (S)-3-(4′-cyano-biphenyl-4-yl)-2-{[(3R,7S)-3-[4-(3,4-dichlorobenzyloxy)-phenyl]-1-methyl-2-oxo-6-((S)-1-phenyl-propyl)-2,3,5,6,7,8-hexahydro-1H-4-oxa-1,6-diaza-anthracene-7-carbonyl]-amino}-propionic acid]",Mean Change from Baseline in HbA1c (%),"[2]; group 1.4-2.7 mg/kg (<2.7), Week 4",−0.37%
same,Mean Change from Baseline in HbA1c (%),"[2]; group 1.4-2.7 mg/kg (<2.7), Week 8",−0.69%
same,Mean Change from Baseline in HbA1c (%),"[2]; group 1.4-2.7 mg/kg (<2.7), Week 12",−0.79%
same,Mean Change from Baseline in HbA1c (%),"[2]; group 2.8-4.0 mg/kg, Week 4",−0.47%
same,Mean Change from Baseline in HbA1c (%),"[2]; group 2.8-4.0 mg/kg, Week 8",−0.86%
same,Mean Change from Baseline in HbA1c (%),"[2]; group 2.8-4.0 mg/kg, Week 12",−1.09%
same,Mean Change from Baseline in HbA1c (%),"[2]; group 4.1-5.0 mg/kg, Week 4",−0.36%
same,Mean Change from Baseline in HbA1c (%),"[2]; group 4.1-5.0 mg/kg, Week 8",−0.78%
same,Mean Change from Baseline in HbA1c (%),"[2]; group 4.1-5.0 mg/kg, Week 12",−0.85%
same,Mean Change from Baseline in HbA1c (%),"[2]; group 5.1-12.4 mg/kg (>5.0), Week 4",−0.26%
same,Mean Change from Baseline in HbA1c (%),"[2]; group 5.1-12.4 mg/kg (>5.0), Week 8",−0.34%
same,Mean Change from Baseline in HbA1c (%),"[2]; group 5.1-12.4 mg/kg (>5.0), Week 12",−0.34%
